Series [1] concerns the target T1, GDI1 (Homo sapiens, UniProt P31150).
T1 sequence (P31150 1-447): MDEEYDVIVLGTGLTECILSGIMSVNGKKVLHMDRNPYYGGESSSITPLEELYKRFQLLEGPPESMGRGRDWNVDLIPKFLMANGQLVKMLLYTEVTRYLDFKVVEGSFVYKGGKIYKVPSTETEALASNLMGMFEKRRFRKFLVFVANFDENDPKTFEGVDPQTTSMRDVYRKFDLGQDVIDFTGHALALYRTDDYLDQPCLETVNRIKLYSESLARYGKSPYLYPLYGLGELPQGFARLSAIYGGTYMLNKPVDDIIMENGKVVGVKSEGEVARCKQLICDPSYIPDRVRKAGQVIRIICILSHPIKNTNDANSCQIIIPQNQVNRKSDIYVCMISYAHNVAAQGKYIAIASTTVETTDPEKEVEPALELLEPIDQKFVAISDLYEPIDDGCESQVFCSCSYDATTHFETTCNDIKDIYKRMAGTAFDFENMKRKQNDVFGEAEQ
As to the kind of experiment: GDI1 level by Western blot, AsPC-1 cells. The class given is cell-based. The conditions noted are these: up to 10 μM. Background: A western blot detects proteins with antibodies after separation by electrophoresis.

For series [2], the system named is PDAC PDX tumors. The series can be described thus: Pancreatic adenocarcinoma PDX model. It counts as in vivo, mouse.
Series [3] concerns AsPC-1 xenograft. The series can be described thus: AsPC-1 pancreatic carcinoma xenograft model. The class given is in vivo, mouse.
The target in series [4] is T2, GDI2 (Homo sapiens, UniProt P50395).
T2 sequence (P50395 1-445): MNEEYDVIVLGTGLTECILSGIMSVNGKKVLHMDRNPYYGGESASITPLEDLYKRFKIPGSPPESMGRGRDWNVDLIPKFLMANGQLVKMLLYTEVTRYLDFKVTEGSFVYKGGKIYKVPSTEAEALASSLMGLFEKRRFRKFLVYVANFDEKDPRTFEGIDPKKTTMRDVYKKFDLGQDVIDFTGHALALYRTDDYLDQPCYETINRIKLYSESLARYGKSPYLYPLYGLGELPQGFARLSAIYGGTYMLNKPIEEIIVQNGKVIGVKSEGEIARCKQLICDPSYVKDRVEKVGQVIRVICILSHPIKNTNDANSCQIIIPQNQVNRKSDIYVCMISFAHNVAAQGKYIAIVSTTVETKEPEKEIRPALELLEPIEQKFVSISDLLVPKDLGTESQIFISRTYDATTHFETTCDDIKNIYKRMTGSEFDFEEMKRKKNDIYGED
The series can be described thus: Biolayer interferometry. The class given is binding. A general note: BLI is a label-free optical method that tracks binding on a fibre tip over time.

Series [5] deals with T2, GDI2. The series can be described thus: GDI2 degradation by Western blot, AsPC-1 cells. It counts as cell-based.

These results are taken from article PMC10598831 (JACS Au, 2023).

The term Kd denotes the equilibrium constant for the complex coming apart. In general, Dmax refers to the greatest extent of degradation seen. One may read the DC50 as the midpoint of the concentration-degradation curve. For `Cc1cc(C)cc(COc2cc3c(cc2OCc2cc(C)cc(C)c2)[C@H]2C[C@](O)(Cc4cn(CCOCCOCCOCCNC(=O)[C@@H](CC(C)C)NC(=O)[C@@H](O)[C@H](N)Cc5ccccc5)nn4)C[C@H](C)N2CC3)c1` [Compound 21], the “Effect on GDI1 protein level” value in series [1] is recorded as “without affecting the GDI1 protein level”. Also, the Toxicity result in series [2] (18 days of treatment) is listed as “without significant toxicity”. In addition, the PDAC tumor growth entry in series [2] ((+)-37 40 mg/kg ip., 21 15 mg/kg ip., every 3 days, 18 days) is “successfully suppressed PDAC tumor growth”. Further, the “GDI2 not restored in tumor tissue” value in series [3] (15 mg/kg ip., 72 h post final injection, Western blot) is listed as “more than 90%”. The “Toxicity (body weight, histopathology of major organs)” value in series [3] (18 days of treatment) is given as “No significant signs of toxicity”. Moreover, the “Tumor growth vs vehicle” value in series [3] ((+)-37 25 or 40 mg/kg ip., 21 15 mg/kg ip., every 3 days, 18 days) is on record as “significantly attenuated tumor growth”. Besides, the Kd in series [4] worked out at 23.9 µM. In addition, the maximal degradation (Dmax) in series [5] (ASPC1, read-out: GDI2 Dmax) was 84.2%. In series [5] (AsPC-1 cells, after 9 h of treatment), the GDI2 depleted is more than 70%. Moreover, the DC50 in series [5] (read-out: GDI2 DC50, AsPC-1 cells, 0.63–10 μM, 24 h, n = 3) was determined as 1.48 µM.
